How the values were obtained:
Assay in all cases: relative viability (nuclei count vs DMSO), 5 days (fraction); higher = more cells survive
[1] = compound: CC1=NN=C(O1)C2=NN=C(C=C2)N3CCC(CC3)OC4=C(C=CC(=C4)F)Cl + CC(=O)Nc1cccc(-n2c(=O)n(C3CC3)c(=O)c3c(Nc4ccc(I)cc4F)n(C)c(=O)c(C)c32)c1 [Trametinib] (partner 0.02 µM)
Summary of the method: (§1)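 Lung cancer cell lines in 1536-well plates got either a single drug or a fixed anchor-drug dose together with five library-drug doses (not always all listed) in √10 steps, by pin tool, on the day after seeding. Nuclei were counted after 5 days, and relative viability is the treated-to-vehicle ratio of nuclei counts. Values are medians of duplicate plates.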

[2] = compound: CC1=NN=C(O1)C2=NN=C(C=C2)N3CCC(CC3)OC4=C(C=CC(=C4)F)Cl + CS(=O)(=O)N1CCN(Cc2cc3nc(-c4cccc5[nH]ncc45)nc(N4CCOCC4)c3s2)CC1 [Pictilisib] (partner 1 µM)
Summary of the method: as §1

Tosedostat + Dasatinib = compound: CC(C)C[C@@H](C(=O)N[C@H](C(=O)OC1CCCC1)c1ccccc1)[C@H](O)C(=O)NO [Tosedostat] + Cc1nc(Nc2ncc(C(=O)Nc3c(C)cccc3Cl)s2)cc(N2CCN(CCO)CC2)n1 [Dasatinib] (partner 0.075 µM)
Summary of the method: as §1

[3] = compound: CC1=NN=C(O1)C2=NN=C(C=C2)N3CCC(CC3)OC4=C(C=CC(=C4)F)Cl + COc1cc2c(Oc3ccc(NC(=O)C4(C(=O)Nc5ccc(F)cc5)CC4)cc3F)ccnc2cc1OCCCN1CCOCC1 [Foretinib] (partner 0.25 µM)
Summary of the method: as §1

Cell Line	relative viability ([1]; first compound 0.253 µM)	relative viability ([1]; first compound 0.8 µM)	relative viability ([1]; first compound 2.53 µM)	relative viability ([1]; first compound 8 µM)	relative viability ([2]; first compound 0.253 µM)	relative viability ([2]; first compound 0.8 µM)	relative viability ([2]; first compound 2.53 µM)	relative viability ([2]; first compound 8 µM)	relative viability (Tosedostat + Dasatinib; first compound 0.02 µM)	relative viability (Tosedostat + Dasatinib; first compound 0.06325 µM)	relative viability (Tosedostat + Dasatinib; first compound 0.2 µM)	relative viability (Tosedostat + Dasatinib; first compound 0.6325 µM)	relative viability (Tosedostat + Dasatinib; first compound 2 µM)	relative viability ([3]; first compound 0.253 µM)	relative viability ([3]; first compound 0.8 µM)	relative viability ([3]; first compound 2.53 µM)	relative viability ([3]; first compound 8 µM)
HCC-44	0.608	0.994	0.945	0.856	0.42	0.444	0.578	0.472									
HCC-827	0.42	0.343	0.431	0.399	0.544	0.571	0.609	0.605	0.308	0.34	0.301	0.377	0.288	0.381	0.239	0.353	0.318
NCI-H1623									0.585	0.542	0.607	0.552	0.601	0.717	0.669	0.771	0.781
NCI-H441	0.343	0.327	0.462	0.409	0.504	0.423	0.389	0.389	0.702	0.61	0.583	0.445	0.539	0.658	0.78	0.686	0.605
NCI-H1734	0.642	0.652	0.663	0.597	0.451	0.404	0.421	0.355	0.523	0.477	0.436	0.466	0.446	0.861	0.857	0.769	0.699
HARA	0.438	0.369	0.448	0.322	0.263	0.282	0.336	0.191	0.304	0.282	0.235	0.234	0.195	0.538	0.289	0.317	0.273
NCI-H1703					0.226	0.265	0.258	0.279							0.438	0.394	0.478
NCI-H1395	0.963	0.978	0.89	1	0.565	0.597	0.567	0.549	0.383	0.426	0.448	0.468	0.41	0.939	0.901	0.969	0.893
NCI-H1355	0.317	0.379	0.374	0.371			0.453	0.374	0.758	0.681	0.728	0.592	0.57	0.723	0.802	0.895	0.845
LXF-289	0.603	0.582	0.637	0.58	0.69	0.718	0.687	0.6	0.199	0.248	0.244	0.225	0.184	0.692	0.671	0.66	0.563
NCI-H1563					0.625	0.694	0.659	0.633	0.507	0.528	0.459	0.512	0.442	0.925	0.866	0.931	0.951
HCC-78	0.338	0.396	0.433	0.365	0.204	0.234	0.11	0.184	0.317	0.439	0.37	0.374	0.493	0.465	0.51	0.467	0.516
NCI-H1666	0.764	0.761	0.834	0.834	0.276	0.414	0.456	0.313	0.771	0.871	0.854	0.848	0.874	0.496	0.47	0.459	0.412
HCC-15	0.404	0.399	0.376	0.385	0.583	0.566	0.6	0.546	0.64	0.625	0.578	0.559	0.462	0.538	0.476	0.405	0.446
EKVX	0.26	0.254	0.26	0.286	0.323	0.31	0.388	0.345	0.586	0.565	0.548	0.588	0.512	0.41	0.382	0.382	0.36
NCI-H2347	0.234	0.288	0.256	0.246	0.024	0.53	0.422	0.753	0.269	0.353	0.291	0.311	0.26	0.904	0.931	0.707	0.824
LK-2	0.728	0.732	0.867	0.828	0.651	0.716	0.869	0.751	0.29	0.275	0.296	0.4	0.267	1.11	1.05	1.45	1.5
NCI-H1651	0.651	0.621	0.609	0.576	0.506	0.665	0.524	0.417	0.566	0.384	0.411	0.399	0.338	0.819	0.619	0.689	0.848
COR-L23	0.498	0.396	0.529	0.444	0.66	0.621	0.686	0.469	0.546	0.469	0.495	0.381	0.332	0.901	0.836	0.869	0.672
ABC-1					0.389	0.532	0.547	0.464	0.632	0.598	0.519	0.563	0.481	0.601	0.439	0.578	0.644
SW 900		0.749	0.862	0.621					0.54	0.485	0.714	0.875	0.416			0.822	0.73
